Data reported in patent publication US20100267561A1, “HERBICIDAL PYRIDAZINONE DERIVATIVES” (priority 2007, published 2010).
Where two headings read alike, the source gives them in different places.

Tests used:
Assay in all cases: Test B pre-/postemergence plant response
Type in all cases: in vivo
[1] = tested on: eastern black (E.B.) nightshade (Solanum ptycanthum); details: Solanum, pre-emergence, Preemergence, read-out: Plant response rating, Nightshade, E. B.
In short: (§1)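 Seeds were sown and sprayed preemergence, while plants at 2 to 18 cm (1- to 4-leaf stage) got postemergence sprays. Compounds were formulated in a non-phytotoxic solvent mixture with surfactant. After 13 to 15 days in a greenhouse, injury was rated visually against untreated controls, 0 (no effect) to 100 (complete control).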

[2] = tested on: catchweed bedstraw (Galium aparine); details: Galium aparine, pre-emergence, Preemergence, read-out: Plant response rating, Galium
In short: as §1

[3] = tested on: morningglory (Ipomoea coccinea); details: Ipomoea, read-out: Plant response rating, Morningglory; for pest or weed control at 16 g/ha: 16 g ai/ha; for pest or weed control at 31 g/ha: 31 g ai/ha, 100 complete control; for pest or weed control at 62 g/ha: 62 g ai/ha; for pest or weed control at 125 g/ha: 125 g ai/ha
In short: as §1

[4] = tested on: cocklebur (Xanthium strumarium); details: Xanthium strumarium, read-out: Plant response rating, Cocklebur; for pest or weed control at 62 g/ha: 62 g ai/ha; for pest or weed control at 125 g/ha: 125 g ai/ha
In short: as §1

[5] = tested on: Italian ryegrass (Lolium multiflorum); details: Lolium multiflorum, read-out: Plant response rating, Ryegrass, Italian; for pest or weed control at 16 g/ha: 16 g ai/ha; for pest or weed control at 31 g/ha: 31 g ai/ha, 100 complete control; for pest or weed control at 62 g/ha: 62 g ai/ha; for pest or weed control at 125 g/ha: 125 g ai/ha
In short: as §1

[6] = tested on: surinam grass (Brachiaria decumbens); details: Urochloa decumbens, read-out: Plant response rating, Surinam Grass; for pest or weed control at 16 g/ha: 16 g ai/ha; for pest or weed control at 31 g/ha: 31 g ai/ha, 100 complete control; for pest or weed control at 62 g/ha: 62 g ai/ha; for pest or weed control at 125 g/ha: 125 g ai/ha
In short: as §1

[7] = tested on: lambsquarters (Chenopodium album); details: Chenopodium album, read-out: Plant response rating, Lambsquarters; for pest or weed control at 16 g/ha: 16 g ai/ha; for pest or weed control at 31 g/ha: 31 g ai/ha, 100 complete control; for pest or weed control at 125 g/ha: 125 g ai/ha
In short: as §1

wild oat (Avena fatua) = details: Avena fatua, read-out: Plant response rating, Oat, Wild; for pest or weed control at 16 g/ha: 16 g ai/ha; for pest or weed control at 31 g/ha: 31 g ai/ha, 100 complete control; for pest or weed control at 62 g/ha: 62 g ai/ha; for pest or weed control at 125 g/ha: 125 g ai/ha
In short: as §1

[8] = tested on: common ragweed (Ambrosia elation); details: Ambrosia, read-out: Plant response rating, Ragweed; for pest or weed control at 16 g/ha: 16 g ai/ha; for pest or weed control at 31 g/ha: 31 g ai/ha, 100 complete control; for pest or weed control at 62 g/ha: 62 g ai/ha; for pest or weed control at 125 g/ha: 125 g ai/ha
In short: as §1

[9] = tested on: yellow nutsedge (Cyperus esculentus); details: Cyperus, read-out: Plant response rating, Nutsedge, Yellow; for pest or weed control at 16 g/ha: 16 g ai/ha; for pest or weed control at 31 g/ha: 31 g ai/ha, 100 complete control; for pest or weed control at 62 g/ha: 62 g ai/ha; for pest or weed control at 125 g/ha: 125 g ai/ha
In short: as §1

[10] = tested on: green foxtail (Setaria viridis); details: Setaria viridis, read-out: Plant response rating, Foxtail, Green; for pest or weed control at 16 g/ha: 16 g ai/ha; for pest or weed control at 31 g/ha: 31 g ai/ha, 100 complete control; for pest or weed control at 62 g/ha: 62 g ai/ha; for pest or weed control at 125 g/ha: 125 g ai/ha
In short: as §1

corn (Zea mays) = details: Zea mays; for Corn plant response rating (crop injury, 0 = no effect, 100 = complete kill) at 16 g/ha: 16 g ai/ha; for Corn plant response rating (crop injury, 0 = no effect, 100 = complete kill) at 31 g/ha: 31 g ai/ha, 100 complete control; for Corn plant response rating (crop injury, 0 = no effect, 100 = complete kill) at 62 g/ha: 62 g ai/ha; for Corn plant response rating (crop injury, 0 = no effect, 100 = complete kill) at 125 g/ha: 125 g ai/ha
In short: as §1

kochia (Kochia scoparia) = details: Postemergence
In short: as §1

[11] = 31 g ai/ha, 0 to 100 scale, 0 no effect, 100 complete control
[12] = post-emergence, Postemergence, scale 0 to 100
[13] = post-emergence, Postemergence, scale 0 to 100, 0 no effect
[14] = pre-emergence, Preemergence, scale 0 to 100 (0 no effect, 100 complete control)
[15] = pre-emergence, Preemergence, 0 to 100 scale, 0 no effect
[16] = pre-emergence, Preemergence, scale 0 to 100

CCc1cc(-c2ccc(C(F)(F)F)cc2)nn1-c1c(O)cnn(C)c1=O [Compound 11, 4-[5-ethyl-3-[4-(trifluoromethyl)phenyl]-1H-pyrazol-1-yl]-5-hydroxy-2-methyl-3(2H)-pyridazinone]
0%: pest or weed control at 31 g/ha [1, 11] | pest or weed control at 62 g/ha ([1]; 62 g ai/ha, scale 0 to 100) | pest or weed control at 125 g/ha ([1]; 125 g ai/ha, scale 0 to 100) | pest or weed control at 16 g/ha ([2]; 16 g ai/ha, scale 0 to 100 (0 no effect, 100 complete control)) | pest or weed control at 31 g/ha [2, 11] | pest or weed control at 62 g/ha ([2]; 62 g ai/ha, scale 0 to 100) | pest or weed control at 125 g/ha ([2]; 125 g ai/ha, scale 0 to 100) | pest or weed control at 16 g/ha [3, 12] | pest or weed control at 31 g/ha [3, 13] | pest or weed control at 62 g/ha [3, 12] | pest or weed control at 125 g/ha [3, 12] | pest or weed control at 16 g/ha [3, 14] | pest or weed control at 31 g/ha [3, 15] | pest or weed control at 62 g/ha [3, 16] | pest or weed control at 125 g/ha [3, 16] | pest or weed control at 16 g/ha ([4]; post-emergence, Postemergence, 16 g ai/ha, scale 0 to 100) | pest or weed control at 31 g/ha ([4]; post-emergence, Postemergence, 31 g ai/ha, scale 0 to 100, 0 no effect, 100 complete control) | pest or weed control at 62 g/ha [4, 12] | pest or weed control at 125 g/ha [4, 12] | pest or weed control at 62 g/ha [4, 16] | pest or weed control at 125 g/ha [4, 16] | pest or weed control at 16 g/ha [7, 12] | pest or weed control at 31 g/ha [7, 13] | pest or weed control at 62 g/ha ([7]; post-emergence, Postemergence, 62 g ai/ha, scale 0 to 100) | pest or weed control at 125 g/ha [7, 12] | pest or weed control at 16 g/ha [7, 14] | pest or weed control at 31 g/ha [7, 15] | pest or weed control at 125 g/ha [7, 16] | pest or weed control at 16 g/ha [8, 12] | pest or weed control at 31 g/ha [8, 13] | pest or weed control at 62 g/ha [8, 12] | pest or weed control at 125 g/ha [8, 12] | pest or weed control at 16 g/ha [8, 14] | pest or weed control at 31 g/ha [8, 15] | pest or weed control at 62 g/ha [8, 16] | pest or weed control at 125 g/ha [8, 16] | pest or weed control at 16 g/ha [9, 12] | pest or weed control at 31 g/ha [9, 13] | pest or weed control at 62 g/ha [9, 12] | pest or weed control at 125 g/ha [9, 12] | pest or weed control at 16 g/ha [9, 14] | pest or weed control at 31 g/ha [9, 15] | pest or weed control at 62 g/ha [9, 16] | pest or weed control at 125 g/ha [9, 16]
98%: pest or weed control at 31 g/ha (wild oat (Avena fatua); [15]) | pest or weed control at 62 g/ha (wild oat (Avena fatua); [16])
95%: Corn plant response rating (crop injury, 0 = no effect, 100 = complete kill) at 62 g/ha (corn (Zea mays); [16])
85%: pest or weed control at 16 g/ha [10, 12] | Corn plant response rating (crop injury, 0 = no effect, 100 = complete kill) at 31 g/ha (corn (Zea mays); [15])
70%: Corn plant response rating (crop injury, 0 = no effect, 100 = complete kill) at 16 g/ha (corn (Zea mays); [14])
0: Plant response rating, Kochia (kochia (Kochia scoparia); 16 g ai/ha, scale 0 to 100) | Plant response rating, Kochia (kochia (Kochia scoparia); 31 g ai/ha, scale 0 to 100, 0 no effect, 100 complete control) | Plant response rating, Kochia (kochia (Kochia scoparia); 62 g ai/ha, scale 0 to 100) | Plant response rating, Kochia (kochia (Kochia scoparia); 125 g ai/ha, scale 0 to 100)
80%: pest or weed control at 16 g/ha (wild oat (Avena fatua); [14])
100%: pest or weed control at 16 g/ha [5, 12] | pest or weed control at 31 g/ha [5, 13] | pest or weed control at 62 g/ha [5, 12] | pest or weed control at 125 g/ha [5, 12] | pest or weed control at 31 g/ha [5, 15] | pest or weed control at 62 g/ha [5, 16] | pest or weed control at 125 g/ha [5, 16] | pest or weed control at 16 g/ha [6, 12] | pest or weed control at 31 g/ha [6, 13] | pest or weed control at 62 g/ha [6, 12] | pest or weed control at 125 g/ha [6, 12] | pest or weed control at 16 g/ha [6, 14] | pest or weed control at 31 g/ha [6, 15] | pest or weed control at 62 g/ha [6, 16] | pest or weed control at 125 g/ha [6, 16] | pest or weed control at 16 g/ha (wild oat (Avena fatua); [12]) | pest or weed control at 31 g/ha (wild oat (Avena fatua); [13]) | pest or weed control at 62 g/ha (wild oat (Avena fatua); [12]) | pest or weed control at 125 g/ha (wild oat (Avena fatua); [12]) | pest or weed control at 125 g/ha (wild oat (Avena fatua); [16]) | pest or weed control at 31 g/ha [10, 13] | pest or weed control at 62 g/ha [10, 12] | pest or weed control at 125 g/ha [10, 12] | pest or weed control at 16 g/ha [10, 14] | pest or weed control at 31 g/ha [10, 15] | pest or weed control at 62 g/ha [10, 16] | pest or weed control at 125 g/ha [10, 16] | Corn plant response rating (crop injury, 0 = no effect, 100 = complete kill) at 16 g/ha (corn (Zea mays); [12]) | Corn plant response rating (crop injury, 0 = no effect, 100 = complete kill) at 31 g/ha (corn (Zea mays); [13]) | Corn plant response rating (crop injury, 0 = no effect, 100 = complete kill) at 62 g/ha (corn (Zea mays); [12]) | Corn plant response rating (crop injury, 0 = no effect, 100 = complete kill) at 125 g/ha (corn (Zea mays); [12]) | Corn plant response rating (crop injury, 0 = no effect, 100 = complete kill) at 125 g/ha (corn (Zea mays); [16])
90%: pest or weed control at 16 g/ha [5, 14]
